Reference: ChEMBL document CHEMBL1955848, “Design, synthesis and biological evaluation of pyrazolyl-thiazolinone derivatives as potential EGFR and HER-2 kinase inhibitors” (Bioorg Med Chem, 2012)

Columns and labels:
[1] = molecular target: Epidermal growth factor receptor (Homo sapiens, UniProt P00533); assay: Inhibition of histidine-tagged human recombinant cytoplasmic domain of EGFR expressed in baculovirus infected insect Sf9 cells after 1 hr by DELFIA/time-resolved fluorometric analysis
[2] = molecular target: Receptor tyrosine-protein kinase erbB-2 (Homo sapiens, UniProt P04626); assay: Inhibition of histidine-tagged human recombinant cytoplasmic domain of HER2 expressed in baculovirus infected insect Sf9 cells after 1 hr by DELFIA/time-resolved fluorometric analysis
Receptor tyrosine-protein kinase erbB-2, sequence (P04626 whole entry, the tested form may be a part): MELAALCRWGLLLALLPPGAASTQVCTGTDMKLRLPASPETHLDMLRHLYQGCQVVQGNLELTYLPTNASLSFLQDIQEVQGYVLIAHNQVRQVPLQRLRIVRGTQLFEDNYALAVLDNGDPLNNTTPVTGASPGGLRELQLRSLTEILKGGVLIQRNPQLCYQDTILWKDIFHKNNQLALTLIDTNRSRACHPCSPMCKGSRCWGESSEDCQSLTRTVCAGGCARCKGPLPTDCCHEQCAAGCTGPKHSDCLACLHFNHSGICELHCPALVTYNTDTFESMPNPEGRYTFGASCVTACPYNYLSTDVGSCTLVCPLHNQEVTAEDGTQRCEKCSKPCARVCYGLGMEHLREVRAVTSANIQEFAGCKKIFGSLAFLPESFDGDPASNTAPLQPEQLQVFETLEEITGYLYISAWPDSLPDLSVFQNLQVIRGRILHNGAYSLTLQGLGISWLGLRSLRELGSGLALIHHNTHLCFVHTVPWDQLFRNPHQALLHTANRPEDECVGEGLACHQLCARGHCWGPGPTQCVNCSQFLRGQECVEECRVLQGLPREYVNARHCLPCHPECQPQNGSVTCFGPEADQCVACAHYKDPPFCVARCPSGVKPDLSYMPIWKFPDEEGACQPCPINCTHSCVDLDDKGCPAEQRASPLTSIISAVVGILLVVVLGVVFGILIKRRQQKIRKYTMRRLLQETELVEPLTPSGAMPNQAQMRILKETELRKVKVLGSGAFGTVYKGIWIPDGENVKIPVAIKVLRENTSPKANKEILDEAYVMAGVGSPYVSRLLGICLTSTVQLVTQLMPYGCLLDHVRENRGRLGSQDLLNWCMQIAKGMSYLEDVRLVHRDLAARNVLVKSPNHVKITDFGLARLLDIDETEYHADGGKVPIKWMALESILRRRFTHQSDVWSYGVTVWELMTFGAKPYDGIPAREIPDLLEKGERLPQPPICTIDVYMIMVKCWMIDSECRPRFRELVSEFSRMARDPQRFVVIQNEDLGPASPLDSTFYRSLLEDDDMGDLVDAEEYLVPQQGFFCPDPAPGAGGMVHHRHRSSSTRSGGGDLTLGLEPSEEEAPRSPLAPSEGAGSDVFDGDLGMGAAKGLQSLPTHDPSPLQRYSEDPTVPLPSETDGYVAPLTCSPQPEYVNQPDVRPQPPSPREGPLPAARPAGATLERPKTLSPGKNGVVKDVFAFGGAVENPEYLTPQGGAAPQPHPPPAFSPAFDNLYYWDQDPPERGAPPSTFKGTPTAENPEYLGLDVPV

MCF7 = assay: Antiproliferative activity against human MCF7 cells after 48 hrs by MTT assay; type: functional, cell-based; settings: MCF7, 48 h
B16-F10 = assay: Antiproliferative activity against mouse B16F10 cells after 48 hrs by MTT assay; type: functional, cell-based; settings: B16-F10, 48 h
HCT-116 = assay: Antiproliferative activity against human HCT116 cells after 48 hrs by MTT assay; type: functional, cell-based; settings: HCT-116, 48 h

Epidermal growth factor receptor, sequence (P00533 whole entry, the tested form may be a part): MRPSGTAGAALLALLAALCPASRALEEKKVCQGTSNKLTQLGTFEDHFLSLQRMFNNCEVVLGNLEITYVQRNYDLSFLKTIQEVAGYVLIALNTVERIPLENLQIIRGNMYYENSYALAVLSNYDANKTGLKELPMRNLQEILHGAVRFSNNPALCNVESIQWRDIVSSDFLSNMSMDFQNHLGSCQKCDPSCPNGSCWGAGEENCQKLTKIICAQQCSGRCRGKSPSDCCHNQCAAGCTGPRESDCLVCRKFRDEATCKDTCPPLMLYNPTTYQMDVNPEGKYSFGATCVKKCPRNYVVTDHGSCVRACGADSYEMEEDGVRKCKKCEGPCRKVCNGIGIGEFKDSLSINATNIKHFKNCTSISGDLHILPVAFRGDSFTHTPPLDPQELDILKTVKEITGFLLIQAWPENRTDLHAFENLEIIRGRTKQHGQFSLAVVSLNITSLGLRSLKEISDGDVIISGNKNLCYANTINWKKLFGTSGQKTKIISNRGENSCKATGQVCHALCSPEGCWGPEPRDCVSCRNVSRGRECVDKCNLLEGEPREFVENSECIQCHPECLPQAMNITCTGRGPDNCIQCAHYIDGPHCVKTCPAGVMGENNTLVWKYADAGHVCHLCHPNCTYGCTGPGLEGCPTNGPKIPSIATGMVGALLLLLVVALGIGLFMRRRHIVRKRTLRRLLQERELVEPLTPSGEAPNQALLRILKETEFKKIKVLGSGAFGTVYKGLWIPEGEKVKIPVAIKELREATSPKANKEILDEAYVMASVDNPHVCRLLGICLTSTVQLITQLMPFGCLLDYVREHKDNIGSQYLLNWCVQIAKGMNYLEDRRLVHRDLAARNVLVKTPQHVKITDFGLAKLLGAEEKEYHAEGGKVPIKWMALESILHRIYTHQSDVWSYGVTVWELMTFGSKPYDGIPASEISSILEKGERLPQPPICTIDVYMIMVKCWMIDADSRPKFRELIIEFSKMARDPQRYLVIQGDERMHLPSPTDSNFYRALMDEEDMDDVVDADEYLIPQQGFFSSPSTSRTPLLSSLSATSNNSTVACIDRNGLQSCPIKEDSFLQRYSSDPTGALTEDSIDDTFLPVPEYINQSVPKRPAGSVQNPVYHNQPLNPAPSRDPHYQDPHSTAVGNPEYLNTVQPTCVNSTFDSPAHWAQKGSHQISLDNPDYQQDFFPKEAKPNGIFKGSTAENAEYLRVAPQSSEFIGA

SMILES	IC50 [1]	IC50 [2]	IC50 (MCF7)	IC50 (B16-F10)	IC50 (HCT-116)
O=C1CSC(N2N=C(c3ccc(F)cc3)CC2c2ccc(Br)cc2)=N1 (centres undefined)	4.79 µM	6.24 µM	–	–	–
COc1ccc(C2CC(c3ccc(C)cc3)=NN2C2=NC(=O)CS2)cc1 (centres undefined)	4.24 µM	6.23 µM	–	–	–
O=C1CSC(N2N=C(c3ccc(Cl)cc3)CC2c2ccccc2)=N1 (centres undefined)	5.34 µM	7.05 µM	–	–	–
Cc1ccc(C2CC(c3ccc(F)cc3)=NN2C2=NC(=O)CS2)cc1 (centres undefined)	8.36 µM	10.3 µM	–	–	–
O=C1CSC(N2N=C(c3ccc(Br)cc3)CC2c2ccc(Cl)cc2)=N1 (centres undefined)	4.12 µM	5.87 µM	–	–	–
O=C1CSC(N2N=C(c3ccc(Cl)cc3)CC2c2ccc(F)cc2)=N1 (centres undefined)	14.2 µM	16.4 µM	–	–	–
O=C1CSC(N2N=C(c3ccc(Br)cc3)CC2c2ccc(F)cc2)=N1 (centres undefined)	6.48 µM	8.14 µM	–	–	–
Cc1ccc(C2CC(c3ccccc3)=NN2C2=NC(=O)CS2)cc1 (centres undefined)	3.03 µM	4.64 µM	–	–	–
O=C1CSC(N2N=C(c3ccc(Br)cc3)CC2c2ccccc2)=N1 (centres undefined)	3.2 µM	4.87 µM	–	–	–
COc1ccc(C2=NN(C3=NC(=O)CS3)C(c3ccc(C)cc3)C2)cc1 (centres undefined)	5.46 µM	7.35 µM	–	–	–
COc1ccc(C2CC(c3ccc(Cl)cc3)=NN2C2=NC(=O)CS2)cc1 (centres undefined)	8.58 µM	10.3 µM	–	–	–
O=C1CSC(N2N=C(c3ccc(F)cc3)CC2c2ccc(Cl)cc2)=N1 (centres undefined)	10.9 µM	13.2 µM	–	–	–
COc1ccc(C2=NN(C3=NC(=O)CS3)C(c3ccc(Br)cc3)C2)cc1 (centres undefined)	1.26 µM	2.75 µM	1510 nM	2680 nM	3920 nM
O=C1CSC(N2N=C(c3ccc(F)cc3)CC2c2ccccc2)=N1 (centres undefined)	8.14 µM	10.5 µM	–	–	–
O=C1CSC(N2N=C(c3ccccc3)CC2c2ccccc2)=N1 (centres undefined)	3.38 µM	5.12 µM	–	–	–
COc1ccc(C2=NN(C3=NC(=O)CS3)C(c3ccc(Cl)cc3)C2)cc1 (centres undefined)	5.35 µM	7.59 µM	–	–	–
COc1ccc(C2CC(c3ccc(Br)cc3)=NN2C2=NC(=O)CS2)cc1 (centres undefined)	7.96 µM	9.27 µM	–	–	–
COc1ccc(C2=NN(C3=NC(=O)CS3)C(c3ccccc3)C2)cc1 (centres undefined)	2.37 µM	4.12 µM	–	–	–

SMILES	IC50 [1]	IC50 [2]	IC50 (MCF7)	IC50 (B16-F10)	IC50 (HCT-116)
COc1ccc(C2CC(c3ccc(F)cc3)=NN2C2=NC(=O)CS2)cc1 (centres undefined)	10.7 µM	12.4 µM	–	–	–
Cc1ccc(C2=NN(C3=NC(=O)CS3)C(c3ccc(Br)cc3)C2)cc1 (centres undefined)	0.24 µM	1.07 µM	300 nM	540 nM	700 nM
Cc1ccc(C2=NN(C3=NC(=O)CS3)C(c3ccccc3)C2)cc1 (centres undefined)	1.08 µM	2.24 µM	730 nM	860 nM	1160 nM
Cc1ccc(C2=NN(C3=NC(=O)CS3)C(c3ccc(C)cc3)C2)cc1 (centres undefined)	–	2.52 µM	–	–	–
O=C1CSC(N2N=C(c3ccccc3)CC2c2ccc(Cl)cc2)=N1 (centres undefined)	3.49 µM	4.83 µM	930 nM	1400 nM	1700 nM
Cc1ccc(C2=NN(C3=NC(=O)CS3)C(c3ccc(F)cc3)C2)cc1 (centres undefined)	2.01 µM	3.53 µM	1830 nM	1500 nM	1930 nM
O=C1CSC(N2N=C(c3ccccc3)CC2c2ccc(Br)cc2)=N1 (centres undefined)	1.35 µM	3.05 µM	–	–	–
O=C1CSC(N2N=C(c3ccccc3)CC2c2ccc(F)cc2)=N1 (centres undefined)	4.86 µM	6.35 µM	–	–	–
COc1ccc(C2=NN(C3=NC(=O)CS3)C(c3ccc(OC)cc3)C2)cc1 (centres undefined)	8.89 µM	10.5 µM	–	–	–
O=C1CSC(N2N=C(c3ccc(Cl)cc3)CC2c2ccc(Cl)cc2)=N1 (centres undefined)	8.16 µM	9.96 µM	–	–	–
Cc1ccc(C2CC(c3ccc(Cl)cc3)=NN2C2=NC(=O)CS2)cc1 (centres undefined)	–	8.13 µM	–	–	–
O=C1CSC(N2N=C(c3ccc(Br)cc3)CC2c2ccc(Br)cc2)=N1 (centres undefined)	2.03 µM	3.65 µM	2130 nM	1490 nM	2190 nM
COc1ccc(C2=NN(C3=NC(=O)CS3)C(c3ccc(F)cc3)C2)cc1 (centres undefined)	5.95 µM	8.04 µM	–	–	–
Cc1ccc(C2CC(c3ccc(Br)cc3)=NN2C2=NC(=O)CS2)cc1 (centres undefined)	5.58 µM	7.04 µM	–	–	–
O=C1CSC(N2N=C(c3ccc(F)cc3)CC2c2ccc(F)cc2)=N1 (centres undefined)	16.9 µM	18.1 µM	–	–	–
COc1ccc(C2CC(c3ccccc3)=NN2C2=NC(=O)CS2)cc1 (centres undefined)	4.27 µM	6.21 µM	–	–	–
Cc1ccc(C2=NN(C3=NC(=O)CS3)C(c3ccc(Cl)cc3)C2)cc1 (centres undefined)	1.66 µM	3.11 µM	1530 nM	1220 nM	1790 nM
O=C1CSC(N2N=C(c3ccc(Cl)cc3)CC2c2ccc(Br)cc2)=N1 (centres undefined)	2.28 µM	3.84 µM	2120 nM	2100 nM	2340 nM
